Test results reported in patent publication US20240025919A1, “AZA-TETRACYCLIC OXAZEPINE COMPOUNDS AND USES THEREOF” (Genentech, Inc., priority 2022, published 2024).
Where two headings read alike, the source gives them in different places.

Key:
[1] = target: KRAS WT (Homo sapiens (Human), UniProt P01116); assay: KRAS WT Biochemical Assay, BODIPY-GDP Exchange TR-FRET (Example 501; 3 nM KRAS WT, 3 nM SOS1, 60-minute incubation)
Procedure, shortened: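 SOS1-mediated exchange assay: 3 nM biotin-KRAS WT with terbium-streptavidin, started with 3 nM SOS1 and 300 nM BODIPY-GDP, HEPES pH 7.5 with MgCl2. TR-FRET (520/490 nm) read after 60 min; normalized to DMSO and full-inhibition control, IC50 from 4-parameter Hill fit.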

[2] = target: KRAS G12D (Homo sapiens (Human), UniProt P01116, G12D); assay: KRAS G12D LoEnz Biochemical Assay, BODIPY-GDP Exchange TR-FRET (SOS1-mediated nucleotide exchange); settings: read-out: KRas (G12D) GDP HTRF IC50
[3] = read-out: KRas(wt) GDP HTRF IC50

Chain of KRAS WT (P01116-2 other isoform, or with tags, fused parts or gaps): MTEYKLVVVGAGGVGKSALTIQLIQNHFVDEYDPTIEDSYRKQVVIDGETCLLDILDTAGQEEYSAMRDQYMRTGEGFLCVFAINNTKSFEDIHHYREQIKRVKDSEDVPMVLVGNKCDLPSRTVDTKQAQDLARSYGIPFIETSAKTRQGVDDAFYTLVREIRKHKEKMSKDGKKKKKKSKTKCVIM
Chain of KRAS G12D (P01116-2 other isoform, or with tags, fused parts or gaps G12D): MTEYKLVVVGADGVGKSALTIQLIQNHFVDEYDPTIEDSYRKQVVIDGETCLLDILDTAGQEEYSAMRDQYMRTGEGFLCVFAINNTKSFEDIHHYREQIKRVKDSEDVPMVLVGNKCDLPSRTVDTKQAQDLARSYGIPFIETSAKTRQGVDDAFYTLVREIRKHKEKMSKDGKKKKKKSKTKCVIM

Row | Structure (SMILES) | IC50 ([1]; read-out: KRas HTRF IC50) [nM] | IC50 [2] [nM] | IC50 [1, 3] [nM]
1 | C[C@@H]1Oc2nc(-c3cc(N)c(F)c(F)c3CC(F)F)c(F)c3nc(OC[C@@]45CCCN4C[C@H](F)C5)nc(c23)N2C[C@H]3CC[C@H](N3)[C@@H]12 [Compound 190, 4-(2,2-Difluoroethyl)-2,3-difluoro-5-((5S,5aS,6S,9R)-1-fluoro-12-(((2R,7aS)-2-fluorotetrahydro-1H-pyrrolizin-7a(5H)-yl)methoxy)-5-methyl-5a,6,7,8,9,10-hexahydro-5H-4-oxa-3,10a,11,13,14-pentaaza-6,9-methanonaphtho[1,8-ab]heptalene-2-yl)aniline] | 10.1 | 0.11 | 
2 | Cc1cc(N)c(F)c(-c2nc3c4c(nc(OC[C@@]56CCCN5CC5(CC5(F)F)C6)nc4c2F)N2C[C@H]4CC[C@H](N4)[C@H]2[C@H](C)O3)c1C(F)(F)F (stereo partly drawn) [Compound 227, 3-((5S,5aS,6S,9R)-12-(((7a′S)-2,2-Difluorodihydro-1′H,3′H-spiro[cyclopropane-1,2′-pyrrolizin]-7a′(5′H)-yl)methoxy)-1-fluoro-5-methyl-5a,6,7,8,9,10-hexahydro-5H-4-oxa-3,10a,11,13,14-pentaaza[6,9]methanonaphtho[1,8-ab]heptalene-2-yl)-2-fluoro-5-methyl-4-(trifluoromethyl)aniline] | 0.938 | 0.21 | 
3 | C[C@@H]1Oc2nc(-c3cncc4cccc(Cl)c34)c(F)c3nc(OC[C@@]45CCCN4C[C@H](F)C5)nc(c23)N2C[C@H]3CC[C@H](N3)[C@@H]12 [Compound 38, (5S,5aS,6S,9R)-2-(5-Chloroisoquinolin-4-yl)-1-fluoro-12-(((2R,7aS)-2-fluorotetrahydro-1H-pyrrolizin-7a(5H)-yl)methoxy)-5-methyl-5a,6,7,8,9,10-hexahydro-5H-4-oxa-3,10a,11,13,14-pentaaza-6,9-methanonaphtho[1,8-ab]heptalene] |  | 13.9 | 697
4 | Cc1nc(N)cc(-c2nc3c4c(nc(OC[C@@]56CCN5CC(F)(F)C6)nc4c2F)N2C[C@H]4CC[C@H](N4)[C@H]2[C@H](C(F)(F)F)O3)c1C(F)(F)F (single isomer, unassigned) [252 (isomer 1)] | 25 | 1.17 | 
5 | Cc1cc(N)nc(-c2nc3c4c(nc(OC[C@@]56CCCN5CC5(CC5(F)F)C6)nc4c2F)N2C[C@H]4CC[C@H](N4)[C@H]2[C@H](C)O3)c1C(F)(F)F (stereo partly drawn) [Compound 47, 6-((5S,5aS,6S,9R)-12-(((7a′S)-2,2-difluorodihydro-1′H,3′H-spiro[cyclopropane-1,2′-pyrrolizin]-7a′(5′H)-yl)methoxy)-1-fluoro-5-methyl-5a,6,7,8,9,10-hexahydro-5H-4-oxa-3,10a,11,13,14-pentaaza[6,9]methanonaphtho[1,8-ab]heptalen-2-yl)-4-methyl-5-(trifluoromethyl)pyridin-2-amine] |  | 0.443 | 4.43
6 | Cc1nc(N)cc(-c2nc3c4c(nc(OCC5(CN6CC7CCC6CO7)CC5)nc4c2F)N2C[C@H]4CC[C@H](N4)[C@H]2[C@H](C)O3)c1C(F)(F)F [Compound 211, 4-((5S,5aS,6S,9R)-12-((1-((2-Oxa-5-azabicyclo[2.2.2]octan-5-yl)methyl)cyclopropyl)methoxy)-1-fluoro-5-methyl-5°,6,7,8,9,10-hexahydro-5H-4-oxa-3,10°,11,13,14-pentaaza-6,9-methanonaphtho[1,8-ab]heptalen-2-yl)-6-methyl-5-(trifluoromethyl)pyridin-2-amine] | 17.8 | 0.21 | 
7 | Cc1nc(N)cc(-c2nc3c4c(nc(OC[C@@H]5CC[C@H]6COCCN65)nc4c2F)N2C[C@H]4CC[C@H](N4)[C@H]2[C@H](C(F)(F)F)O3)c1C(F)(F)F [Compound 253, 4-((5R,5aS,6S,9R)-1-Fluoro-12-(((6S,8aS)-hexahydro-1H-pyrrolo[2,1-c][1,4]oxazin-6-yl)methoxy)-5-(trifluoromethyl)-5a,6,7,8,9,10-hexahydro-5H-4-oxa-3,10a,11,13,14-pentaaza-6,9-methanonaphtho[1,8-ab]heptalene-2-yl)-6-methyl-5-(trifluoromethyl)pyridin-2-amine] | 37.1 | 1.03 | 
8 | Cc1c(F)c(N)cc(-c2nc3c4c(nc(OC[C@@H]5C[C@@H](F)CN5C)nc4c2F)N2C[C@H]4CC[C@H](N4)[C@H]2[C@H](C)O3)c1C(F)(F)F [Compound 26, 2-Fluoro-5-((5S,5aS,6S,9R)-1-fluoro-12-(((2S,4R)-4-fluoro-1-methylpyrrolidin-2-yl)methoxy)-5-methyl-5a,6,7,8,9,10-hexahydro-5H-4-oxa-3,10a,11,13,14-pentaaza-6,9-methanonaphtho[1,8-ab]heptalen-2-yl)-3-methyl-4-(trifluoromethyl)aniline] |  | 0.26 | 6.01
9 | COC1(C)CN(CC2(COc3nc4c5c(nc(-c6cc(N)nc(C)c6C(F)(F)F)c(F)c5n3)O[C@@H](C)[C@@H]3[C@@H]5CC[C@H](CN43)N5)CC2)C1 [Compound 273, 4-((5S,5aS,6S,9R)-1-fluoro-12-((1-((3-methoxy-3-methylazetidin-1-yl)methyl)cyclopropyl)methoxy)-5-methyl-5a,6,7,8,9,10-hexahydro-5H-4-oxa-3,10a,11,13,14-pentaaza-6,9-methanonaphtho[1,8-ab]heptalene-2-yl)-6-methyl-5-(trifluoromethyl)pyridin-2-amine] | 17.1 | 0.29 | 
10 | C[C@@H]1Oc2nc(-c3cc(N)c(F)cc3CC(F)F)c(F)c3nc(OC[C@@]45CCCN4C[C@H](F)C5)nc(c23)N2C[C@H]3CC[C@H](N3)[C@@H]12 [Compound 187, 4-(2,2-Difluoroethyl)-2-fluoro-5-((5S,5aS,6S,9R)-1-fluoro-12-(((2R,7aS)-2-fluorotetrahydro-1H-pyrrolizin-7a(5H)-yl)methoxy)-5-methyl-5a,6,7,8,9,10-hexahydro-5H-4-oxa-3,10a,11,13,14-pentaaza-6,9-methanonaphtho[1,8-ab]heptalene-2-yl)aniline] | 163 | 0.51 | 
11 | Cc1nc(N)cc(-c2nc3c4c(nc(OCC56C[C@@H](F)CN5C[C@H](F)C6)nc4c2F)N2C[C@H]4CC[C@H](N4)[C@H]2[C@H](C(F)(F)F)O3)c1C(F)(F)F [Compound 261, 4-((5R,5aS,6S,9R)-12-(((2R,6R)-2,6-Difluorotetrahydro-1H-pyrrolizin-7a(5H)-yl)methoxy)-1-fluoro-5-(trifluoromethyl)-5a,6,7,8,9,10-hexahydro-5H-4-oxa-3,10a,11,13,14-pentaaza-6,9-methanonaphtho[1,8-ab]heptalen-2-yl)-6-methyl-5-(trifluoromethyl)pyridin-2-amine] | 97.1 | 2.76 | 
12 | C#Cc1cccc2cc(O)cc(-c3nc4c5c(nc(OC[C@@]67CCN6CC(F)(F)C7)nc5c3F)N3C[C@H]5CC[C@H](N5)[C@H]3[C@H](C)O4)c12 (single isomer, unassigned) [Compound 20] |  | 0.12 | 6.55
13 | Cc1nc(N)cc(-c2nc3c4c(nc(OCC5(CN6CC(C(F)F)C6)CC5)nc4c2F)N2C[C@H]4CC[C@H](N4)[C@H]2[C@H](C)O3)c1C(F)(F)F [Compound 274, 4-((5S,5aS,6S,9R)-12-((1-((3-(difluoromethyl)108eptalene-1-yl)methyl)cyclopropyl)methoxy)-1-fluoro-5-methyl-5a,6,7,8,9,10-hexahydro-5H-4-oxa-3,10a,11,13,14-pentaaza-6,9-methanonaphtho[1,8-ab]heptalene-2-yl)-6-methyl-5-(trifluoromethyl)pyridin-2-amine] | 25.7 | 0.34 | 
